Reference: ChEMBL document CHEMBL1156829 (Proc Natl Acad Sci U S A, 2008)

Legend:
Plasmodium falciparum [1] = assay: NOVARTIS: Inhibition of Plasmodium falciparum W2 (drug-resistant) proliferation in erythrocyte-based infection assay; type: functional, organism-based; details: Plasmodium falciparum, W2; read-out: EC50
Plasmodium falciparum [2] = assay: NOVARTIS: Inhibition of Plasmodium falciparum 3D7 (drug-susceptible) proliferation in erythrocyte-based infection assay; type: functional, organism-based; details: Plasmodium falciparum, 3D7
[3] = NOVARTIS: Cytotoxicity against human hepatocellular carcinoma cell line (Huh7); type: toxicity, cell-based, Huh-7; details: Huh7 cells (hepatocellular carcinoma cell line)

SMILES | EC50 (Plasmodium falciparum [1]) [nM] | EC50 (Plasmodium falciparum [2]) [nM] | CC50 [3] [nM]
CCCN1/C(=C/c2sc3ccccc3[n+]2CC)C=Cc2ccccc21 | 1340 | 820 | > 10000
O=C(Nc1cc(C(F)(F)F)cc(C(F)(F)F)c1)Nc1ccc(Cl)c(Cl)c1 | 927 | 814 | 6570
Ic1nc2ccccc2s1 | 1350 | > 295 | > 10000
O=C(O)CSc1nc2c(ccc3nsnc32)[nH]1 | > 1440 | > 964 | > 10000
CCN1CCN(C/C=C/c2ccccc2[N+](=O)[O-])CC1 | 1410 | > 1250 | > 10000
C[N+](C)(C)c1ccc2cc(Br)c3ccccc3c2c1 | 1370 | 759 | > 10000
CN1CCN(c2nc(NN=Cc3ccc(O)cc3)nc(Nc3ccc([N+](=O)[O-])cc3)n2)CC1 | 1340 | > 1250 | > 10000
CCN(CC)C(=O)COc1ccccc1CNCc1ccccc1 | 1440 | > 1250 | > 10000
NS(=O)(=O)c1ccc(N/C=C/C(=O)c2ccc(Cl)s2)cc1 | > 1250 | 1830 | > 8690
CCOC(=O)c1c(Cl)nnc(-c2ccccc2)c1-c1ccccc1 | > 1440 | 797 | > 10000
COCOc1ccc(-c2nc(-c3ccncc3)cnc2N)cc1 | > 1440 | 1430 | > 10000
COc1ccc(Nc2nc(NCc3ccco3)c3ccccc3n2)cc1 | 421 | 253 | 2970
Cc1nc([P+](c2ccccc2)(c2ccccc2)c2ccccc2)c(N2CCCCC2)o1 | 967 | 761 | 7120
COc1ccc(CCNc2nc(NCCCN3CCCC3)ncc2C(=O)NCC(C)C)cc1OC | > 1350 | 809 | > 10000
O=C(c1nccs1)C1CCN(C(=O)c2cscn2)CC1 | 1390 | > 1250 | > 10000
Cc1ccc(CN2C(=O)C(O)(CC(=O)c3ccccc3)c3ccccc32)cc1 (stereo not given) | 8960 | 7010 | > 64500
Cc1ccccc1Cn1cc(NC(=O)c2cc(-c3cccs3)on2)cn1 | 1420 | > 1250 | > 10000
Cc1cc(S(=O)(=O)N2CCN(Cc3ccccc3)CC2)ccc1-n1cnnn1 | 1410 | 732 | > 10000
CCOc1ccc2nc(C)cc(Nc3ccc(OC)cc3)c2c1 | 1150 | 419 | 8350
O=C(CCCn1c(SCc2ccccc2F)nc2ccccc2c1=O)N1CCCC1 | > 1440 | 1060 | > 10000
CCCCCCN(C(=O)c1ccc2c(c1)OCO2)C(CC)c1nc2ccccc2c(=O)n1-c1ccccc1OC (stereo not given) | 647 | 862 | > 4510
CC(C)CNC(=O)c1cnc(NCCCN2CCCC2)nc1NCC1CCCCC1 | > 1350 | 474 | > 10000
CCN1C(=O)N(CC(N)=O)C(=O)C12CCN(Cc1ccc(N(C)c3ccccc3)cc1)CC2 | 7790 | > 12500 | 57800
Cc1cc(C)c(S(=O)(=O)NCc2ccc(Cl)cc2)c(C)c1 | 6590 | > 12500 | 48900

SMILES | EC50 (Plasmodium falciparum [1]) [nM] | EC50 (Plasmodium falciparum [2]) [nM] | CC50 [3] [nM]
COc1cc(NC(C)CCCN(Cc2ccc(Cl)cc2)C(=O)Nc2ccc(Br)cc2)c2ncccc2c1 (stereo not given) | 788 | > 1250 | > 5600
CCCCCN(C(=O)COc1ccc(Cl)cc1)C(CC)c1nc2ccccc2c(=O)n1-c1cccc(Cl)c1 (stereo not given) | > 1380 | 1420 | > 10000
O=C(Cc1ccc(Cl)cc1)NNS(=O)(=O)c1ccc([N+](=O)[O-])cc1 | > 1370 | > 893 | > 10000
Cc1cccc(CSc2nnc(C(Cc3ccccc3)NC(=O)C3CCCCC3)n2-c2ccc(Cl)cc2Cl)c1 (stereo not given) | 1430 | 1240 | > 10000
CCNC(=O)N1CCN(CCN(C/C=C/c2ccccc2OC)C(=O)CC(C)CC(C)(C)C)CC1 (stereo not given) | 1430 | > 1250 | > 10000
Cc1ccccc1/C=C1/SC(=Nc2ccccc2)NC1=O | > 1420 | > 528 | > 10000
O=C(NCC1CCCO1)c1cnc(N2CCN(c3ncccn3)CC2)c2ccccc12 (stereo not given) | > 1400 | > 637 | > 10000
CC(=O)Nc1ccc(S(=O)(=O)Nc2ccccc2[N+](=O)[O-])cc1 | 1400 | 677 | > 10000
CCC(=O)N1CCOc2c(cc(-c3csc4ccccc34)cc2OCCc2ccccn2)C1 | 1350 | > 1620 | > 10000
CCOC(=O)c1[nH]nc(C(=O)c2ccccc2)c1-c1ccccc1 | > 1350 | > 393 | > 10000
Cc1oc2c(c1C(=O)NCCCn1ccnc1)C(=O)c1ccccc1C2=O | 39.1 | 90.4 | 270
CCN1/C(=C/c2sc3ccc(-c4ccccc4)cc3[n+]2CCO)C=Cc2ccccc21 | 1340 | 955 | > 10000
O=C(Nc1ccc(F)c(F)c1)c1cc2cc(C3(O)CCN(Cc4ccccc4F)CC3)ccc2o1 | 1850 | 1500 | 12800
O=C(O[Si](c1ccccc1)(c1ccccc1)c1ccccc1)c1ccccc1 | 1320 | > 1250 | > 10000
O=c1c2c3c(sc2ncn1CCCc1ccccc1)CC(N1CCC(N2CCCCC2)CC1)CC3 (stereo not given) | 2020 | 386 | 14800
O=C(O)CSC(C(=O)Nc1ccc(Cl)cc1)c1ccccc1 (stereo not given) | > 1360 | > 1620 | > 10000
CCNc1nc(NC(C)C)nc(NC(N)NOC)n1 (stereo not given) | > 1400 | > 1150 | > 10000
Cc1noc(C)c1C(=O)N1CCC(O)(c2ccccn2)CC1 | > 1400 | > 563 | > 10000
C1=C(c2ccc(CN3CCCCC3)cc2)N2CCN=C2c2ccccc21 | 579 | 278 | 4140
COc1ccc(CN(CC2CCN(C(=O)c3ccccc3Cl)CC2)C(=O)c2ccc(Cl)cc2Cl)cc1 | 3310 | 7250 | 24300
CCOC(=O)c1cnc2cc(Cl)c(OC)cc2c1NCCCN1CCOCC1 | 1340 | 1370 | > 10000
Cc1ccc(C)c(Nc2nc(NCc3ccco3)c3ccccc3n2)c1 | 844 | 298 | 5940
CC(=O)N1CC(=NNC(=O)C(C)Nc2c(C)cccc2C)c2ccccc21 (stereo not given) | 1420 | 1960 | > 10000
COc1ccc2c(c1)c1c3n2CCN(Cc2ccccc2)C3=[N+](C)CC1 | 1340 | 442 | > 10000

SMILES | EC50 (Plasmodium falciparum [1]) [nM] | EC50 (Plasmodium falciparum [2]) [nM] | CC50 [3] [nM]
O=C(NCCCN1CCCC1=O)C(=O)NCC(c1ccco1)N1CCOCC1 (stereo not given) | 1350 | > 1250 | > 10000
O=C(NCc1ccco1)c1cccc(Cl)c1Cl | 1340 | > 1250 | > 10000
c1ccc2cc3c(NCCCN4CCOCC4)ccnc3cc2c1 | 83.5 | 44.3 | 598
CC[n+]1c(C=Cc2ccc(OC)cc2)ccc2ccccc21 | 1480 | 690 | 10300
CCOP1(=O)COc2ccccc2OC1 | > 1380 | > 1140 | > 10000
Oc1ccc(-c2ccc(F)cc2)cc1CNCCCn1ccnc1 | 1430 | 1060 | > 10000
CC[n+]1c(/C=C/C=C2\N(C)c3ccccc3C2(C)C)n(-c2ccccc2)c2ccc(C)cc21 | 1400 | 1530 | > 10000
Cc1ccc(N2C(=O)C3C(C2=O)C2(c4ccccc4)C(=O)C3(c3ccccc3)C(c3ccccc3)=C2c2ccccc2)cc1Br (stereo not given) | 1410 | 1440 | > 10000
CC(C)N(CC(=O)Nc1cc(C(C)(C)C)nn1-c1ccc(Cl)c(Cl)c1)C(=O)c1ccc(C(F)(F)F)cc1 | 1330 | 845 | > 10000
O=C(O)c1ccc([C@@H]2Nc3c(ccc4ccccc34)[C@@H]3C=CC[C@@H]32)cc1 | 1340 | > 1250 | > 10000
CCCCCc1c(C)c(C#N)c2nc3ccccc3n2c1NCCN(CC)CC | 1320 | > 1250 | > 10000
COc1ccccc1CNC(=O)CN1C(=O)c2cccnc2Oc2ccccc21 | 1350 | > 586 | > 10000
Cc1ccc2nc(Cl)c3cc(C(=O)NCCN4CCN(C)CC4)sc3c2c1 | 11700 | 7770 | 85900
O=[N+]([O-])c1ccc(N2CCN(c3nc(NCCc4c[nH]c5ccccc45)c4ccccc4n3)CC2)cc1 | 1980 | 171 | 14300
CCCCCN(C(=O)c1ccc(Br)cc1)C(CC)c1nc2ccccc2c(=O)n1-c1ccccc1OC (stereo not given) | 633 | 1020 | > 4400
CCOC(=O)c1c(NC(=O)CSc2nnc(CNC(=O)c3ccc(C)c(C)c3)n2C2CCCCC2)sc2c1CCC2 | > 1400 | > 1090 | > 10000
CN1c2ccccc2N(C)C1c1ccc2c(c1)OCO2 | > 1410 | 1120 | > 10000
Cc1c(Cl)cccc1NC(=O)C1C(C(=O)O)C2C=CC1C21CC1 (stereo not given) | 1400 | 1250 | > 10000
c1ccc(-c2nc(Nc3ccncc3)cc(-c3cccnc3)n2)cc1 | 1440 | 884 | > 10000
CN1CCCC1CCNc1ncc(C(=O)NCCc2ccccc2)c(NCC2CCCCC2)n1 (stereo not given) | 1340 | 598 | > 10000
N#CC(=Cc1ccccc1OCc1ccc(Cl)cc1Cl)c1nc2ccccc2[nH]1 | 717 | 1130 | 5050
COCCN1Cc2cccc(C(=O)Nc3ccc4c(c3)OCCO4)c2C1=O | 1390 | > 1450 | > 10000
